As a reminder, the chromatographic logP is lipophilicity estimated from chromatographic retention. Low values mean lower lipophilicity, high ones higher lipophilicity.

Our source for the LogP and chromatographic logP values is US11401254B2, “Substituted thiophenecarboxamides and analogues as antibacterials agents” (Bayer Aktiengesellschaft, priority 2018, dated 2022).

The series in a line: Log P by HPLC on reversed phase columns (EEC directive 79/831 Annex V.A8). It counts as physicochemical. The settings on record: for chromatographic logP: reversed phase HPLC columns. As to the method: In the above tables, measurement of Log P values was performed according to EEC directive 79/831 Annex V.A8 by HPLC (High Performance Liquid Chromatography) on reversed phase columns with the following methods: • ^[a]
If more than one Log P value is available within the same method, all the values are given and separated by “+”.
Calibration was done with straight-chain alkan2-ones (with 3 to 16 carbon atoms) with known Log P values (measurement of Log P values using retention times with linear interpolation between successive alkanones). Lambda-max-values were determined using UV-spectra from 200 nm to 400 nm and the peak values of the chromatographic signals.

Setting [1] is: method [a]: LC-UV, acidic range, 0.1% formic acid in water and acetonitrile as eluent.
The mark [2] stands for this setting: value given in preparation example, method variant not stated.

Regarding `Cc1c(C(=O)NC(C(=O)OC2COC2)C(C)C)sc(Br)c1Br` (stereo not drawn) [I.16], the LogP under setting [1] is 3.58^[a]. Still for that read-out and setting: as for `CCOC(=O)C(NC(=O)c1sc(Br)c(Br)c1C)C(C)C` (stereo not drawn) [I.62], the figure is 4.37^[a]; as for `COC(=O)C(NC(=O)c1sc(Br)c(Br)c1C)C(C)C` (stereo not drawn) [I.63], 3.91^[a]. Still for that read-out and setting: to `CCOC(=O)C(Cc1ccccc1)NC(=O)c1sc(Br)c(Br)c1C` (stereo not drawn) [I.65] belongs 4.59^[a]; to `CCOC(=O)C(CC(C)C)NC(=O)c1sc(Br)c(Br)c1C` (stereo not drawn) [I.68], 4.66^[a]; to `CCOC(=O)C(CC(C)C)NC(=O)c1sc(Br)c(Br)c1C` (stereo not drawn) [I.69], 4.66^[a].

As for `COC(=O)C(CCSC)NC(=O)c1sc(Br)c(Br)c1C` (stereo not drawn) [I.70], the LogP under setting [1] is 3.69^[a]. The same measure, in the same setting: to `CCOC(=O)C(NC(=O)c1sc(Cl)c(Cl)c1C)c1ccccc1` (stereo not drawn) [I.75] belongs 4.37^[a]; to `CCOC(=O)C(NC(=O)c1sc(Br)c(Br)c1C)c1ccccc1` (stereo not drawn) [I.76], 4.44^[a]; to `Cc1c(C(=O)NCC(=O)OC(C)C)sc(Br)c1Br` [I.78], 3.40^[a].

`Cc1c(C(=O)NCC(=O)O)sc(Cl)c1Cl` [I.80]: the LogP under setting [1] was 2.05^[a].

With `Cc1c(C(=O)NC(C)C(=O)O)sc(Cl)c1Cl` (stereo not drawn) [I.81], the LogP under setting [1] was 2.28^[a]. Still for that read-out and setting: as for `Cc1c(C(=O)NC(C(=O)O)C(C)C)sc(Cl)c1Cl` (stereo not drawn) [I.82], the figure is 2.96^[a]; as for `CC[C@H](C)[C@H](NC(=O)c1sc(Cl)c(Cl)c1C)C(=O)O` [I.83], 3.31^[a].

As to `Cc1c(C(=O)NC(CC(C)C)C(=O)O)sc(Cl)c1Cl` (stereo not drawn) [I.84], under setting [1], the LogP is 3.31^[a]. Same read-out and setting: to `CSCCC(NC(=O)c1sc(Cl)c(Cl)c1C)C(=O)O` (stereo not drawn) [I.85] belongs 2.80^[a]; to `Cc1c(C(=O)NC(Cc2ccccc2)C(=O)O)sc(Cl)c1Cl` (stereo not drawn) [I.86], 3.31^[a]; to `CSCCC(NC(=O)c1sc(Br)c(Br)c1C)C(=O)O` (stereo not drawn) [I.87], 2.89^[a].

As for `Cc1c(C(=O)NC(Cc2ccccc2)C(=O)O)sc(Br)c1Br` (stereo not drawn) [I.88], under setting [1], the LogP is 3.30^[a].

For the compound `CC[C@H](C)[C@H](NC(=O)c1sc(Br)c(Br)c1C)C(=O)O` [I.89], the LogP under setting [1] is 3.37^[a].

Turning to `COC(=O)C(NC(=O)c1sc(Cl)c(Cl)c1C)C(C)C` (stereo not drawn) [I.91], under setting [1], the LogP was 4.34^[a]. Under setting [1], `CCOC(=O)C1(NC(=O)c2scc(Br)c2C)CC1` [IXa.01, ethyl 1-{[(4-bromo-3-methyl-2-thienyl)carbonyl]amino}cyclopropanecarboxylate] had a chromatographic logP of 2.57. Turning to `CCOC(=O)CNC(=O)c1sc(Br)cc1C` [IXa.02], the LogP under setting [1] is 2.39^[a]. Turning to `CCOC(=O)C(NC(=O)c1sc(Br)cc1C)C(C)C` (stereo not drawn) [IXa.03], the LogP under setting [1] was 3.65^[a]. Turning to `CCOC(=O)C(Cc1ccccc1)NC(=O)c1sc(Br)cc1C` (stereo not drawn) [IXa.04], the LogP under setting [1] was 3.90^[a]. Same read-out and setting: to `CCOC(=O)C1(NC(=O)c2scc(Br)c2C)CC1` [IXb.01] belongs 2.49^[a]. Consider `COC(=O)c1sc(Cl)c(Cl)c1Br` [VIIIa.02, methyl 3-bromo-4,5-dichlorothiophene-2-carboxylate], for which the chromatographic logP reads like this: under setting [1], 4.11; under setting [2], 3.99. The like results for `O=C(O)c1sc(Cl)c(Cl)c1Br` [VIIIa.03, 3-bromo-4,5-dichlorothiophene-2-carboxylic acid] were, in that order, 2.52 and 2.51. The corresponding values for `CCOC(=O)CNC(=O)c1sc(Cl)c(Cl)c1Br` [VIa.01, ethyl N-[(3-bromo-4,5-dichloro-2-thienyl)carbonyl]glycinate] are 3.33 and 3.33. In the case of `COC(=O)CNC(=O)c1sc(Cl)c(Cl)c1I` [VIa.02], under setting [1], the LogP is 2.90^[a]. Still for that read-out and setting: as for `COC(=O)CNC(=O)c1sc(Br)c(Br)c1I` [VIa.03], the figure is 2.96^[a]; as for `CCOC(=O)C1(NC(=O)c2sc(Cl)c(Cl)c2I)CC1` [VIa.05], 3.39^[a]; as for `CCOC(=O)CNC(=O)c1sc(Br)c(Br)c1I` [VIa.10], 3.35^[a].
